Source: ChEMBL document CHEMBL4765274, “The development of advanced structural framework as multi-target-directed ligands for the treatment of Alzheimer's disease” (Eur J Med Chem, 2020)
The source made the active and inactive calls. The rule behind the calls is not given here. Peptide text beside a SMILES is read from it. * marks the point of attachment. Cbz = O=C(OCc1ccccc1)*

What was measured:
Acetylcholinesterase [1] = target: T1, Acetylcholinesterase (Homo sapiens, UniProt P22303); assay: Inhibition of AChE in human erythrocytes at 25 uM by Ellman's method relative to control; type: cell-based; conditions: Erythrocyte
T1 sequence (P22303 whole entry): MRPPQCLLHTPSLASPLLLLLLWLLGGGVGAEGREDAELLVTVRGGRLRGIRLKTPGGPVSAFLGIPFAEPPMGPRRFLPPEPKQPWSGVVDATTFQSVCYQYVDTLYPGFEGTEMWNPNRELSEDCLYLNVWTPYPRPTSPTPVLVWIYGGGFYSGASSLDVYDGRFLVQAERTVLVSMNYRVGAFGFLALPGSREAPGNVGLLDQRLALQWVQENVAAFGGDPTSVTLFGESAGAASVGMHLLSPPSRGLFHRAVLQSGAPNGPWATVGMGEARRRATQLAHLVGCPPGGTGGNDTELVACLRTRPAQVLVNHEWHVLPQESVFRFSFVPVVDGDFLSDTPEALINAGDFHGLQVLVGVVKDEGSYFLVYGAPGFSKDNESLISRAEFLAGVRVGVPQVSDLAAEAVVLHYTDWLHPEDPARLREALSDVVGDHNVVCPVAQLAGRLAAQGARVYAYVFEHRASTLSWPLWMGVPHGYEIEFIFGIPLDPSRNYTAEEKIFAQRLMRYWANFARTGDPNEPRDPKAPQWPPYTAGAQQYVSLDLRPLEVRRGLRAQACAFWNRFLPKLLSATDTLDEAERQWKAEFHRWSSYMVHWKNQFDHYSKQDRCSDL

[2] = Antioxidant activity assessed as trolox equivalent of AAPH radical scavenging activity measured every min for 4 hrs by ORAC-FL assay relative to trolox; type: functional
Cholinesterase [3] = target: T2, Cholinesterase (Homo sapiens, UniProt P06276); assay: Inhibition of human serum BChE at 25 uM by Ellman's method relative to control; type: cell-free
T2 sequence (P06276 whole entry): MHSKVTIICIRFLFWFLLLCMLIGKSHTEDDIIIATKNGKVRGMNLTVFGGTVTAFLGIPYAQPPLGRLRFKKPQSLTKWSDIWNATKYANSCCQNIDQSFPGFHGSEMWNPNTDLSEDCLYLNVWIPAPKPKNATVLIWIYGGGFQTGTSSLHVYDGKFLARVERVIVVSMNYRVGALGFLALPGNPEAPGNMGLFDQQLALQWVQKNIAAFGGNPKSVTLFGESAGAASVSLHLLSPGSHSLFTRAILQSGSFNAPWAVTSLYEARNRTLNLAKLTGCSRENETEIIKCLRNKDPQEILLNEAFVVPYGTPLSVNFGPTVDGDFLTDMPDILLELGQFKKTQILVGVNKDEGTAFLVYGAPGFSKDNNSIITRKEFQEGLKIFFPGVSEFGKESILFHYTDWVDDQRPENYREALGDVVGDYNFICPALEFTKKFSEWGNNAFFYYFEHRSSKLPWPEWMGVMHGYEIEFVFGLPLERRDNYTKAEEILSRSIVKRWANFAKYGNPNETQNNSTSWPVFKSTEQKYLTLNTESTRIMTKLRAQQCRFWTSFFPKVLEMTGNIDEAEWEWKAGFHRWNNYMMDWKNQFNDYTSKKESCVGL

[4] = target: Cholinesterase (Equus caballus) (UniProt P81908); assay: Inhibition of equine serum BChE at 25 uM by Ellman's method relative to control; type: cell-free
Cholinesterase (Equus caballus), sequence (P81908 whole entry): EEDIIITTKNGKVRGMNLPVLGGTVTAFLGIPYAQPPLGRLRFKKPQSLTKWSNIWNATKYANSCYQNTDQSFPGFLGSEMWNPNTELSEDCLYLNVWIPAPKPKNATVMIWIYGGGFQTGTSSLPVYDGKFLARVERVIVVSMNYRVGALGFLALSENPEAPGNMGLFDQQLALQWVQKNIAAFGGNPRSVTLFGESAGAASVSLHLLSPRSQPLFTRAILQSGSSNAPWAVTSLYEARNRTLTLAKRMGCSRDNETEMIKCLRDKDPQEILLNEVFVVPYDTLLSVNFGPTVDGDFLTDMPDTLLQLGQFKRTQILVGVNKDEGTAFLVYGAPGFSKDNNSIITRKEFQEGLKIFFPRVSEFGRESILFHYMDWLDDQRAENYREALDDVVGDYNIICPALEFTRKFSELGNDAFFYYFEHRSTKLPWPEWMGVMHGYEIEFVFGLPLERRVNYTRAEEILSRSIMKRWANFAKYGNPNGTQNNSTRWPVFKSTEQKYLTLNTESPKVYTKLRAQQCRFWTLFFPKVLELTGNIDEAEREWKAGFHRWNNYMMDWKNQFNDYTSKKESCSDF

[5] = target: Acetylcholinesterase (Electrophorus electricus) (UniProt O42275); assay: Inhibition of electric eel AChE at 25 uM by Ellman's method relative to control
Acetylcholinesterase (Electrophorus electricus), sequence (O42275 24-633 limits assumed): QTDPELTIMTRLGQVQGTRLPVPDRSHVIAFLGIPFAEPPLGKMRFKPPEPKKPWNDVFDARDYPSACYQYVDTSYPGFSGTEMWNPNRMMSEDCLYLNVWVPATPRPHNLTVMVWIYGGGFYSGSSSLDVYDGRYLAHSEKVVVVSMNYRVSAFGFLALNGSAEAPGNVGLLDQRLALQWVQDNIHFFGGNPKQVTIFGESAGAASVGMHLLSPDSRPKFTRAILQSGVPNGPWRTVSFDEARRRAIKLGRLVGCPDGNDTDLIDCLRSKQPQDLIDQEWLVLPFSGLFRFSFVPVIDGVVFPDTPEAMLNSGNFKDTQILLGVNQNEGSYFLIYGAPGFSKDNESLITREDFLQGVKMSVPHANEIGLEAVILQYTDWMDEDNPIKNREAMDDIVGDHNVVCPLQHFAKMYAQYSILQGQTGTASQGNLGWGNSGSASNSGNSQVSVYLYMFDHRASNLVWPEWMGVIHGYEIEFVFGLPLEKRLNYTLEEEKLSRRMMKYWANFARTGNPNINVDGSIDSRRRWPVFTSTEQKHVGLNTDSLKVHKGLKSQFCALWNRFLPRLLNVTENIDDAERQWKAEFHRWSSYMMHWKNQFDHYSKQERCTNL

Cholinesterase [6] = target: T2, Cholinesterase; assay: Inhibition of human serum BChE by Ellman's method relative to control; type: cell-free; parameters: concentration or dose not given beside the values; conditions: concentration not given here
Acetylcholinesterase [7] = target: T1, Acetylcholinesterase; assay: Inhibition of AChE in human erythrocytes by Ellman's method; type: cell-based, Erythrocyte
Acetylcholinesterase [8] = target: Acetylcholinesterase (Electrophorus electricus, UniProt O42275); assay: Inhibition of electric eel AChE by Ellman's method
Acetylcholinesterase (Electrophorus electricus, UniProt O42275), sequence (O42275 whole entry): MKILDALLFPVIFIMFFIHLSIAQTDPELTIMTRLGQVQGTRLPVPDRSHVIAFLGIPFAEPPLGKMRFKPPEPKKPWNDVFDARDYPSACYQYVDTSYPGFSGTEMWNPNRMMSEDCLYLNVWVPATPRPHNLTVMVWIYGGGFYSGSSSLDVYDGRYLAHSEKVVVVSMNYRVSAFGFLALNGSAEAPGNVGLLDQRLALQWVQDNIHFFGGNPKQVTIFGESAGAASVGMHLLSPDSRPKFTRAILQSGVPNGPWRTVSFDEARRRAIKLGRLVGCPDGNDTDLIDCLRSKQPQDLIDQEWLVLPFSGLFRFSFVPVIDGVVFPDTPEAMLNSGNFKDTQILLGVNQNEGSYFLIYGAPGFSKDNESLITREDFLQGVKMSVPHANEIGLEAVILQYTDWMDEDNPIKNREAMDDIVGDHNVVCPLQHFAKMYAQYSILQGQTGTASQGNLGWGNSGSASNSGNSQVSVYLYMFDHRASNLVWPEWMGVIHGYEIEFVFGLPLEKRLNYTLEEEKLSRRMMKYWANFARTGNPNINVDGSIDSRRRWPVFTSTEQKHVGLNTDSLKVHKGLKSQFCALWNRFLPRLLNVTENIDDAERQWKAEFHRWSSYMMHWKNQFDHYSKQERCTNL

Cholinesterase [9] = target: T2, Cholinesterase; assay: Inhibition of human serum BChE by Ellman's method; type: cell-free
Cholinesterase [10] = target: Cholinesterase (Equus caballus, UniProt P81908); assay: Inhibition of equine serum BChE by Ellman's method; type: cell-free
Cholinesterase (Equus caballus, UniProt P81908), sequence (P81908 whole entry): as the sequence (P81908 whole entry) above

[11] = Selectivity index, ratio of IC50 for inhibition of equine serum BChE to IC50 for inhibition of electric eel AChE
[12] = Inhibition of self-induced amyloid beta (1 to 42 residues) (unknown origin) aggregation by thioflavin T based fluorescence assay; parameters: species or system Homo sapiens
[13] = Cytotoxicity against rat PC-12 cells assessed as cell viability at 100 uM after 48 hrs by MTT assay relative to control; type: cell-based; conditions: read-out: Activity
PC-12 [14] = assay: Neuroprotective activity against H2O2-induced cytotoxicity in rat PC-12 cells assessed as decrease in LDH activity at 1 to 10 uM preincubated for 2 hrs followed by H2O2 addition and measured after 24 hrs by LDH assay; type: functional, cell-based; conditions: dose 1-10 µM, time 26.0 hrs
SH-SY5Y [15] = assay: Neuroprotective activity against amyloid beta (1 to 42 residues)-induced cytotoxicity in human SH-SY5Y cells assessed as increase in cell viability at 1 to 10 uM incubated for 48 hrs by MTT assay; type: functional, cell-based; conditions: dose 1-10 µM
SH-SY5Y [16] = assay: Cytotoxicity against human SH-SY5Y cells assessed as cell viability up to 100 uM after 48 hrs by MTT assay relative to control; type: cell-based
HT-22 [17] = assay: Inhibition of ubiquitin-proteasome system in mouse HT-22 cells expressing YFP-CLI assessed as increase in GFP level at 0.5 uM after 24 hrs by fluorescence microscopic method; type: cell-based
HT-22 [18] = assay: Inhibition of ubiquitin-proteasome system in mouse HT-22 cells expressing YFP-CLI assessed as increase in GFP level at 0.5 uM after 24 hrs by flow cytometric analysis; type: cell-based
[19] = Effective permeability of compound at 100 ug/m by PAMPA-BBB assay; type: ADME; conditions: read-out: Peff
[20] = Disaggregation of Cu2+ induced amyloid beta (1 to 42 residues) (unknown origin) aggregation at 25 uM by thioflavin-T fluorescence method relative to control
[21] = Inhibition of Cu2+-induced amyloid beta (1 to 42 residues) (unknown origin) aggregation at 25 uM after 24 hrs by thioflavin-T fluorescence method relative to control
Homo sapiens = species on record: Homo sapiens; assay: Inhibition of self-induced amyloid beta (1 to 42 residues) (unknown origin) aggregation at 25 uM by thioflavin T based fluorescence assay relative to control
PC-12 [22] = assay: Neuroprotective activity against H2O2-induced cytotoxicity in rat PC-12 cells assessed as increase in cell viability preincubated for 2 hrs followed by H2O2 addition and measured after 24 hrs by MTT assay; type: functional, cell-based; conditions: dose 1-10 µM, time 26.0 hrs
PC-12 [23] = assay: Cytotoxicity against rat PC-12 cells assessed as reduction in cell viability up to 100 uM after 48 hrs by MTT assay; type: cell-based; conditions: pc-12, 48 h
Danio rerio = species on record: Danio rerio; assay: Antialzheimer activity in Alcl3-induced zebra fish AD model assessed as increase in motility at 8 uM relative to control; type: functional
Mus musculus = assay: Antialzheimer activity in scopolamine-induced Kunming mouse model of memory impairment assessed as latency time at 5 mg/kg , po by step-down passive avoidance test (reference value: 125.65 sec); type: functional

Compound | fold change (FC) [2] | IC50 (Acetylcholinesterase [7]) [µM] | IC50 (Acetylcholinesterase [8]) [µM] | IC50 (Cholinesterase [9]) [µM] | IC50 (Cholinesterase [10]) [µM] | Ratio IC50 [11] | other results
O=C(C=Cc1ccccc1)c1ccccc1 | 2.6 |  |  |  |  |  | inhibition (Acetylcholinesterase [1]): < 5%; inhibition (Cholinesterase [3]): < 5%; inhibition [4]: < 5%; inhibition [5]: < 5%
CC1c2ccccc2CCN1CCCCOc1ccc(-c2coc3cc(OCCCCN4CCc5ccccc5C4C)cc(O)c3c2=O)cc1 (stereo not drawn) | 1.3 | 5.3 | 1.8 | 12.4 |  |  | inhibition (Cholinesterase [6]): 19%
O=c1c(-c2ccc(OCCCCN3CCC(Cc4ccccc4)CC3)cc2)coc2cc(OCCCCN3CCC(Cc4ccccc4)CC3)cc(O)c12 | 1.2 | 7.3 | 7.2 | 11.9 | 31.8 | 4.4 | 
CCN(CCCCOc1ccc(/C=C/C(=O)c2c(O)cc(OCCCCN(CC)Cc3ccccc3OC)cc2O)cc1)Cc1ccccc1OC | 1.3 | 1.3 | 1.16 | 5.2 | 15.6 | 13.4 | IC50 ([12]; read-out: IC50): 3.7 µM; viability at 48 h, 100 µM [13]: 55.6%; Activity (PC-12 [14]): Active; Activity (SH-SY5Y [15]): Active; Activity (SH-SY5Y [16]): Toxic
CC(C)C[C@@H](C=O)NC(=O)[C@H](CC(C)C)NC(=O)[C@H](CC(C)C)NC(=O)OCc1ccccc1 (Cbz-Leu-Leu-Leu-aldehyde) |  |  |  |  |  |  | inhibition (HT-22 [17]): Active; inhibition (HT-22 [18]): Active
O=C1CC(c2ccc(OCCCCN3CCC(Cc4ccccc4)CC3)cc2)Oc2cc(OCCCCN3CCC(Cc4ccccc4)CC3)cc(O)c21 (stereo not drawn) | 0.98 | 7.6 | 8.1 | 18.7 | 7.5 | 0.93 | 
O=C1CC(c2ccc(OCCCCN3CCN(Cc4ccccc4)CC3)cc2)Oc2cc(OCCCCN3CCN(Cc4ccccc4)CC3)cc(O)c21 (stereo not drawn) | 1.7 | 18.7 | 11.6 | 21.4 |  |  | inhibition (Cholinesterase [6]): 12.2%
O=c1c(-c2ccc(O)cc2)coc2cc(O)cc(O)c12 | 5.1 |  |  |  |  |  | inhibition (Cholinesterase [3]): < 5%; inhibition [4]: < 5%
O=c1cc(-c2ccc(O)cc2)oc2cc(O)cc(O)c12 [APIGENIN] | 6.1 |  |  |  |  |  | inhibition (Acetylcholinesterase [1]): < 5%; inhibition (Cholinesterase [3]): < 5%; inhibition [4]: < 5%; inhibition [5]: < 5%; Papp at 100 ug/m [19]: 15.7 ×10⁻⁶ cm/s
O=c1c(-c2ccc(OCCCCN3CCc4ccccc4C3)cc2)coc2cc(OCCCCN3CCc4ccccc4C3)cc(O)c12 | 1.1 | 8.1 | 13.5 | 13.7 | 52.6 | 3.9 | 
COc1cc(/C=C/C(=O)CC(=O)/C=C/c2ccc(O)c(OC)c2)ccc1O |  |  |  |  |  |  | Activity [20]: 56.1%; inhibition [21]: 53.6%; inhibition (Homo sapiens): 43.7%
O=c1cc(-c2ccc(OCCCCN3CCc4ccccc4C3)cc2)oc2cc(OCCCCN3CCc4ccccc4C3)cc(O)c12 | 1.3 | 0.59 | 18.2 | 15.8 | 17.5 | 0.96 | 
O=c1cc(-c2ccc(OCCCCN3CCN(Cc4ccccc4)CC3)cc2)oc2cc(OCCCCN3CCN(Cc4ccccc4)CC3)cc(O)c12 | 1.8 | 1 | 26.8 | 10.7 | 37.5 | 1.4 | 
CCN(CC)CCCCOc1ccc(/C=C/C(=O)c2c(O)cc(OCCCCN(CC)CC)cc2O)cc1 | 0.9 | 4.7 | 6.24 | 8.3 | 30.8 | 4.9 | 
CCN(CCCCOc1ccc(-c2coc3cc(OCCCCN(CC)Cc4ccccc4)cc(O)c3c2=O)cc1)Cc1ccccc1 | 1.4 | 2.1 | 2.3 | 18.2 |  |  | inhibition (Cholinesterase [6]): 12%
O=c1c(-c2ccc(OCCCCN3CCCCC3)cc2)coc2cc(OCCCCN3CCCCC3)cc(O)c12 | 1.2 | 0.81 | 0.52 | 19.6 | 2.2 | 4.2 | Activity (PC-12 [22]): Dose-dependent effect; Activity (PC-12 [23]): Non-Toxic; IC50 ([12]; read-out: IC50): 19.6 µM; Activity (PC-12 [14]): Active; Activity (SH-SY5Y [15]): Active; Activity (SH-SY5Y [16]): Non-Toxic
O=c1c(-c2ccc(OCCCCN3CCN(Cc4ccccc4)CC3)cc2)coc2cc(OCCCCN3CCN(Cc4ccccc4)CC3)cc(O)c12 | 1.8 | 25.1 | 19.8 | 26.4 |  |  | inhibition (Cholinesterase [6]): 5.8%
O=c1cc(-c2ccc(OCCCCN3CCC(Cc4ccccc4)CC3)cc2)oc2cc(OCCCCN3CCC(Cc4ccccc4)CC3)cc(O)c12 | 1.1 | 0.67 | 10.8 | 12.9 | 19.7 | 1.8 | 
COc1cc2c(cc1OC)C(=O)C(CC1CCN(Cc3ccccc3)CC1)C2 (stereo not drawn) [DONEPEZIL] |  |  |  |  |  |  | IC50 [12]: Not Active; Activity (Danio rerio): 55%; Time (Mus musculus): 251.42 s; inhibition [21]: inactive
O=C(/C=C/c1ccc(OCCCCN2CCCCC2)cc1)c1c(O)cc(OCCCCN2CCCCC2)cc1O | 1.1 | 5.1 | 3.52 | 3.7 | 7.2 | 2 | 
O=C(/C=C/c1ccc(OCCCCN2CCCC2)cc1)c1c(O)cc(OCCCCN2CCCC2)cc1O | 0.93 | 3.2 | 5.71 | 1.8 | 8.19 | 1.4 | 
CCN(CCCCOc1ccc(C2CC(=O)c3c(O)cc(OCCCCN(CC)Cc4ccccc4OC)cc3O2)cc1)Cc1ccccc1OC (stereo not drawn) | 1.3 | 4.3 | 5.3 | 15.6 | 21.9 | 4.1 | Activity (PC-12 [22]): Dose-dependent effect; Activity (PC-12 [23]): Non-Toxic; IC50 ([12]; read-out: IC50): 30.9 µM; Activity (PC-12 [14]): Active; Activity (SH-SY5Y [15]): Active; Activity (SH-SY5Y [16]): Non-Toxic
O=C1C[C@@H](c2ccc(O)cc2)Oc2cc(O)cc(O)c21 | 5.5 |  |  |  |  |  | inhibition (Acetylcholinesterase [1]): < 5%; inhibition (Cholinesterase [3]): < 5%; inhibition [4]: < 5%; inhibition [5]: < 5%
O=C1CC(c2ccc(OCCCCN3CCc4ccccc4C3)cc2)Oc2cc(OCCCCN3CCc4ccccc4C3)cc(O)c21 (stereo not drawn) | 1.2 | 13.2 | 16.8 | 20.1 |  |  | inhibition (Cholinesterase [6]): 8.8%
O=C(/C=C/c1ccc(OCCCCN2CCC(Cc3ccccc3)CC2)cc1)c1c(O)cc(OCCCCN2CCC(Cc3ccccc3)CC2)cc1O | 1.1 | 11.9 | 16.3 | 9.4 | 46.1 | 2.8 | 
